Laboratory results reported in a compilation of properties of binary mixtures (doi:10.1021/je300132e).

Assay: xn = mol fraction of the nth substance listed
Conditions: 101 kPa

CC(=O)[O-].CC[n+]1ccn(C)c1 + O
viscosity [mPa·s]
Conditions	x2 = 0.347	x2 = 0.517	x2 = 0.578	x2 = 0.627	x2 = 0.705
293.1 K	93.7	–	–	42.8	–
313.1 K	35.2	24.4	21.4	18.2	14
333.1 K	16.9	–	–	9.39	7.36
353.1 K	9.51	7.19	6.46	5.63	4.38

CC[NH+](C)CC.CS(=O)(=O)[O-] + O
viscosity [mPa·s]
Conditions	x2 = 0.372	x2 = 0.449	x2 = 0.507	x2 = 0.624	x2 = 0.707
293.1 K	65.26	49.94	41.92	27.93	–
313.1 K	–	21.55	18.69	13.36	10.09
333.1 K	–	11.37	–	7.34	5.72
353.1 K	8.2	–	6.08	–	3.6
